Measured values: ChEMBL document CHEMBL5096204 (J Med Chem, 2021)

Tests used:
[1] = Lipophilicity, logD of the compound in octanol/buffer at pH 7.4 by shake flask method; type: physicochemical
[2] = Dissociation constant, pKa of the compound; type: physicochemical
[3] = Volume of distribution in SCID mouse at 5 umol/kg, iv; type: ADME; conditions: in vivo, dose 5 µmol/kg
[4] = Volume of distribution in Han-wistar rat at […], iv; type: ADME; conditions: in vivo, dose 1.5 µmol/kg
[5] = Apparent permeability of compound from apical to basolateral side in human Caco-2 cells; type: ADME, cell-based
[6] = Drug metabolism in SCID mouse plasma assessed as 1-Isopropyl-5-(2-(piperidin-4-yl)-1H-pyrrolo[2,3-b]pyridin-4-yl)-pyridin-2(1H)-one metabolite formation at 0.5 mg/kg, iv administered as cassette dose; type: ADME, organism-based; conditions: in vivo

SMILES	logD [1]	pKa [2]	Vd [4]	other results
COc1cc(F)ccc1-c1ccnc2[nH]c(C3CCNCC3)cc12	1.2	10.2	10 L/kg	Vd [3]: 14 L/kg
COc1cc(F)ccc1-c1ccnc2[nH]c(C3CCN(C)CC3)cc12	2.6	9	5.2 L/kg	
CN(C)C(=O)CN1CCC(c2cc3c(-c4ccc(=O)n(C5CCC5)c4)ccnc3[nH]2)CC1	1.9			
COc1cc(F)ccc1-c1ccnc2[nH]c(-c3ccc(CN4CCOCC4)cc3)cc12	4.4			
COc1cc(C(=O)N2CCCC2)ccc1-c1ccnc2[nH]c(C3CCNCC3)cc12		10.2	5.8 L/kg	Papp A→B [5]: < 0.01 ×10⁻⁶ cm/s
COCCn1cc(-c2ccnc3[nH]c(C4CCN(CC(=O)N(C)C)CC4)cc23)ccc1=O	1.1			
COc1cc(C(=O)N2CCCC2)ccc1-c1ccnc2[nH]c(-c3ccc(CN4CCOCC4)cc3)nc12	2.6			
COc1cc(F)ccc1-c1ccnc2[nH]c(C3CCN(C(C)=O)CC3)cc12	3.4		1.7 L/kg	
COc1cc(=O)n(C)cc1-c1ccnc2[nH]c(C3CCN(CC(=O)N(C)C)CC3)cc12	0.7			
CCn1cc(-c2ccnc3[nH]c(C4CCN(CC(=O)N(C)C)CC4)cc23)ccc1=O	1.2			
CNC(=O)CN1CCC(c2cc3c(-c4ccc(=O)n(C(C)C)c4)ccnc3[nH]2)CC1	2.2	6.9	2.6 L/kg	
CC(C)n1cc(-c2ccnc3[nH]c(C4CCN(CC(=O)N(C)C)CC4)cc23)cnc1=O	0.4		2.9 L/kg	
COc1cc(F)ccc1-c1ccnc2[nH]c(C3CCN(CCO)CC3)cc12	2.4	8.5	12 L/kg	
CC(=O)N1CCC(c2cc3c(-c4ccc(=O)n(C(C)C)c4)ccnc3[nH]2)CC1	2.1			
Cc1nc2ccc(-c3ccnc4[nH]c(C5CCN(CC(=O)N(C)C)CC5)cc34)cc2n1C(C)C	3.1			
COc1cc(F)ccc1-c1ccnc2[nH]c(C3CCOCC3)cc12	3.9			
COc1cc(F)ccc1-c1ccnc2[nH]c(-c3ccc(CN4CCOCC4)cc3)nc12	3.7			
COc1cc(F)ccc1-c1ccnc2[nH]c(C3CCC(NC(C)=O)C3)nc12 (centres undefined)	2.3			
CC(C)n1cc(-c2ccnc3[nH]c(C4CCNCC4)cc23)ccc1=O	-0.2			

SMILES	logD [1]	pKa [2]	Vd [4]	other results
CC(C)n1cc(-c2ccnc3[nH]c(C4CCN(Cc5cccs5)CC4)cc23)ccc1=O	3.4	6.5	1.6 L/kg	
COc1cc(F)ccc1-c1ccnc2[nH]c(C3CCNCC3)nc12	0			
COc1cc(C(=O)N2CCCC2)ccc1-c1ccnc2[nH]c(C3CCN(CCO)CC3)cc12	1.3			
CN(C)C(=O)CN1CCC(c2cc3c(-c4ccc(=O)n(C5CCOCC5)c4)ccnc3[nH]2)CC1	1.1			
COc1cc(F)ccc1-c1ccnc2[nH]c(C3CCN(CC(=O)N(C)C)CC3)cc12	2.9	8	2.3 L/kg	
CC(C)n1cc(-c2ccnc3[nH]c(C4CCN(CC(=O)N5CCCCC5)CC4)cc23)ccc1=O		7.8	8.1 L/kg	Drug metabolism [6]: Metabolite_Notdetected; Vd [3]: 1.5 L/kg
CC(C)n1cc(-c2ccnc3[nH]c(C4CCN(CC(=O)N(C)C)CC4)cc23)ccc1=O		7.9	5.9 L/kg	
CSCCn1cc(-c2ccnc3[nH]c(C4CCN(CC(=O)N(C)C)CC4)cc23)ccc1=O	1.7			
CN(C)C(=O)CN1CCC(c2cc3c(-c4ccc(=O)n(CCC5CCOCC5)c4)ccnc3[nH]2)CC1	1.5			
COc1cc(C(=O)N2CCCC2)ccc1-c1ccnc2[nH]c(C3CCOCC3)cc12	3		0.8 L/kg	
CC(C)n1cc(-c2ccnc3[nH]c(C4CCN(CC(F)F)CC4)cc23)ccc1=O	2.9	6	1.8 L/kg	
O=C(c1ccc(-c2ccnc3[nH]c(-c4ccc(CN5CCOCC5)cc4)nc23)cc1)N1CCCC1	3.2			
CC(C)Cn1cc(-c2ccnc3[nH]c(C4CCN(CC(=O)N(C)C)CC4)cc23)ccc1=O	2			
CC(C)n1nc(-c2ccnc3[nH]c(C4CCN(CC(=O)N(C)C)CC4)cc23)ccc1=O	2	7.6	2.9 L/kg	
CN(C)C(=O)CN1CCC(c2cc3c(-c4ccc(=O)n(CC5CCOCC5)c4)ccnc3[nH]2)CC1	1.4			
COc1cc(C(=O)N2CCCC2)ccc1-c1ccnc2[nH]c(C3CCN(C(C)=O)CC3)cc12	2.5		0.9 L/kg	
CN(C)C(=O)CN1CCC(c2cc3c(-c4ccc(=O)n(C)c4)ccnc3[nH]2)CC1	1.1			
CC(C)n1cc(-c2ccnc3[nH]c(C4CCN(CC(=O)N5CCCC5)CC4)cc23)ccc1=O		7.8	3.9 L/kg	Drug metabolism [6]: Metabolite_Notdetected; Vd [3]: 1.2 L/kg
COc1cc(F)ccc1-c1ccnc2[nH]c([C@H]3CC[C@H](NC(C)=O)CC3)cc12	3.8		2.5 L/kg	
